# Reference: patent publication US20090068290A1, “BIFEPRUNOX DOSES FOR TREATING SCHIZOPHRENIA” (priority 2006, published 2009)
# Assays:
# Format in all cases: in vivo, human
# [1] = system: adult subjects with schizophrenia; assay: BPRS total score, Clinical Study One; conditions: ITT population
# Procedure: (§1) There were five treatment groups in this study. […] Study medication was administered once daily. After Baseline measurements were performed, the titration phase was begun. Bifeprunox treated subjects were titrated up to 5 mg, 10 mg or 20 mg according to a standardized titration schedule (Day 1: 0.125 mg, Day 2: 0.25 mg, Day 3: 0.5 mg, Day 4: 1.0 mg, Day 5: 2.0 mg, Day 6: 5.0 mg, Day 7: 10.0 mg, Day 8: 20 mg). When the assigned dose was reached, subjects were maintained at that dose for the remainder of the six-week treatment period.
# The change in the Positive and Negative Symptom Scale (PANSS) total score, from baseline to endpoint, was the primary outcome measure. Secondary efficacy measures included: PANSS positive, PANSS negative, PANSS general psychopathology (GPP) score, PANSS-derived Brief Psychiatric Rating Scale (BPRS) score, Clinical Global Impressions-Severity of Illness (CGI-S), CGI-Improvement (CGI-I) scores, and responder rates. Safety and tolerability evaluations included extrapyramidal symptoms (EPS), weight gain, lipid profile, and serum prolactin.
# [2] = system: adult subjects with schizophrenia; assay: CGI responder rate, Clinical Study One
# Procedure: as §1
# CLINICAL STUDY ONE: A CGI responder is defined as a subject who is categorized as “very much improved” or “much improved” on the CGI Improvement scale.
# [3] = system: adult subjects with schizophrenia; assay: CGI Improvement score, Clinical Study Two; conditions: LOCF
# Procedure: Rating scale assessments were performed weekly, except for week 5, to measure the change from baseline to endpoint of the PANSS total score. Other assessments included: PANSS positive symptom subscale score, PANSS negative symptom subscale score, PANSS general pschopathology subscale score, BPRS total score, BPRS psychosis score, the CGI-S score, the CGI-I score, responder rates based on the PANSS total score, and the Calgary Depression Scale for Schizophrenia (CDSS). […]
# Subjects who completed this study had the option to continue in the long-term. […] Risperidone-treated subjects were titrated from 2 mg to 6 mg daily over a three-day period and were subsequently maintained at 6 mg/day for the remainder of the treatment period. […] Blood samples were also obtained at Screening/Baseline, Week 3, and Week 6 for clinical laboratory assessments.
# [4] = Bifeprunox 10 mg, Endpoint LOCF
# [5] = Bifeprunox 20 mg, Endpoint LOCF
smiles,measurement,setting,value
"O=c1[nH]c2cccc(N3CCN(Cc4cccc(-c5ccccc5)c4)CC3)c2o1 [Bifeprunox, 7-[4-([1,1′-biphenyl]-3-ylmethyl)-1-piperazinyl]-2(3H)-benzoxazolone]","Change from Baseline in BPRS Total Score, Mean (S.D.)","[1]; Bifeprunox 5 mg, Endpoint LOCF",−6.2 (10.5)
same,"Change from Baseline in BPRS Total Score, Median","[1]; Bifeprunox 5 mg, Endpoint LOCF",−5
same,"Change from Baseline in BPRS Total Score, Trt Effect (bifeprunox—placebo)","[1]; Bifeprunox 5 mg, Endpoint LOCF",−2.4
same,"Change from Baseline in BPRS Total Score, Mean (S.D.)","[1]; Bifeprunox 5 mg, Week 1, LOCF",−2.4 (7.5)
same,"Change from Baseline in BPRS Total Score, Median","[1]; Bifeprunox 5 mg, Week 1, LOCF",−3
same,"Change from Baseline in BPRS Total Score, Mean (S.D.)","[1]; Bifeprunox 5 mg, Week 2, LOCF",−4.2 (8.6)
same,"Change from Baseline in BPRS Total Score, Median","[1]; Bifeprunox 5 mg, Week 2, LOCF",−4
same,"Change from Baseline in BPRS Total Score, Mean (S.D.)","[1]; Bifeprunox 5 mg, Week 3, LOCF",−5.2 (9.7)
same,"Change from Baseline in BPRS Total Score, Median","[1]; Bifeprunox 5 mg, Week 3, LOCF",−5
same,"Change from Baseline in BPRS Total Score, Mean (S.D.)","[1]; Bifeprunox 5 mg, Week 4, LOCF",−5.6 (10.2)
same,"Change from Baseline in BPRS Total Score, Median","[1]; Bifeprunox 5 mg, Week 4, LOCF",−5
same,"Change from Baseline in BPRS Total Score, Mean (S.D.)",[1]; [4],−3.4 (11.5)
same,"Change from Baseline in BPRS Total Score, Median",[1]; [4],−2
same,"Change from Baseline in BPRS Total Score, Trt Effect (bifeprunox—placebo)",[1]; [4],−0.6
same,"Change from Baseline in BPRS Total Score, Mean (S.D.)","[1]; Bifeprunox 10 mg, Week 1, LOCF",−2.0 (7.2)
same,"Change from Baseline in BPRS Total Score, Median","[1]; Bifeprunox 10 mg, Week 1, LOCF",−1
same,"Change from Baseline in BPRS Total Score, Mean (S.D.)","[1]; Bifeprunox 10 mg, Week 2, LOCF",−3.1 (9.3)
same,"Change from Baseline in BPRS Total Score, Median","[1]; Bifeprunox 10 mg, Week 2, LOCF",−3
same,"Change from Baseline in BPRS Total Score, Mean (S.D.)","[1]; Bifeprunox 10 mg, Week 3, LOCF",−3.3 (10.9)
same,"Change from Baseline in BPRS Total Score, Median","[1]; Bifeprunox 10 mg, Week 3, LOCF",−2
same,"Change from Baseline in BPRS Total Score, Mean (S.D.)","[1]; Bifeprunox 10 mg, Week 4, LOCF",−3.1 (10.7)
same,"Change from Baseline in BPRS Total Score, Median","[1]; Bifeprunox 10 mg, Week 4, LOCF",−3
same,"Change from Baseline in BPRS Total Score, Mean (S.D.)",[1]; [5],−7.6 (10.1)
same,"Change from Baseline in BPRS Total Score, Median",[1]; [5],−8
same,"Change from Baseline in BPRS Total Score, Trt Effect (bifeprunox—placebo)",[1]; [5],−3.5
same,"Change from Baseline in BPRS Total Score, Mean (S.D.)","[1]; Bifeprunox 20 mg, Week 1, LOCF",−4.3 (7.3)
same,"Change from Baseline in BPRS Total Score, Median","[1]; Bifeprunox 20 mg, Week 1, LOCF",−3
same,"Change from Baseline in BPRS Total Score, Mean (S.D.)","[1]; Bifeprunox 20 mg, Week 2, LOCF",−6.1 (8.8)
same,"Change from Baseline in BPRS Total Score, Median","[1]; Bifeprunox 20 mg, Week 2, LOCF",−7
same,"Change from Baseline in BPRS Total Score, Mean (S.D.)","[1]; Bifeprunox 20 mg, Week 3, LOCF",−7.5 (9.1)
same,"Change from Baseline in BPRS Total Score, Median","[1]; Bifeprunox 20 mg, Week 3, LOCF",−8
same,"Change from Baseline in BPRS Total Score, Mean (S.D.)","[1]; Bifeprunox 20 mg, Week 4, LOCF",−7.7 (9.7)
same,"Change from Baseline in BPRS Total Score, Median","[1]; Bifeprunox 20 mg, Week 4, LOCF",−8
same,"CGI Responder at Endpoint (LOCF), %",[2]; 5 mg,33%
same,"CGI Responder at Endpoint (LOCF), %",[2]; 10 mg,19%
same,"CGI Responder at Endpoint (LOCF), %",[2]; 20 mg,25%
same,"CGI Improvement Minimally Improved, %","[3]; 30 mg, Week 2",(33%)
same,"CGI Improvement Minimally Worse, %","[3]; 30 mg, Week 2",(8%)
same,"CGI Improvement Much Improved, %","[3]; 30 mg, Week 2",(29%)
same,"CGI Improvement Much Worse, %","[3]; 30 mg, Week 2",(3%)
same,"CGI Improvement No Change, %","[3]; 30 mg, Week 2",(24%)
same,"CGI Improvement Very Much Improved, %","[3]; 30 mg, Week 2",(3%)
same,"CGI Improvement Very Much Worse, %","[3]; 30 mg, Week 2",(<1%)
same,"CGI Improvement Minimally Improved, %","[3]; 30 mg, Week 3",(28%)
same,"CGI Improvement Minimally Worse, %","[3]; 30 mg, Week 3",(7%)
same,"CGI Improvement Much Improved, %","[3]; 30 mg, Week 3",(27%)
same,"CGI Improvement Much Worse, %","[3]; 30 mg, Week 3",(4%)
same,"CGI Improvement No Change, %","[3]; 30 mg, Week 3",(26%)
same,"CGI Improvement Very Much Improved, %","[3]; 30 mg, Week 3",(6%)
same,"CGI Improvement Very Much Worse, %","[3]; 30 mg, Week 3",(<1%)
same,"CGI Improvement Minimally Improved, %","[3]; 30 mg, Week 4",(26%)
same,"CGI Improvement Minimally Worse, %","[3]; 30 mg, Week 4",(9%)
same,"CGI Improvement Much Improved, %","[3]; 30 mg, Week 4",(26%)
same,"CGI Improvement Much Worse, %","[3]; 30 mg, Week 4",(4%)
same,"CGI Improvement No Change, %","[3]; 30 mg, Week 4",(24%)
same,"CGI Improvement Very Much Improved, %","[3]; 30 mg, Week 4",(9%)
same,"CGI Improvement Very Much Worse, %","[3]; 30 mg, Week 4",(<1%)
same,"CGI Improvement Minimally Improved, %","[3]; 30 mg, Week 6/Endpoint",(21%)
same,"CGI Improvement Minimally Worse, %","[3]; 30 mg, Week 6/Endpoint",(11%)
same,"CGI Improvement Much Improved, %","[3]; 30 mg, Week 6/Endpoint",(28%)
same,"CGI Improvement Much Worse, %","[3]; 30 mg, Week 6/Endpoint",(6%)
same,"CGI Improvement No Change, %","[3]; 30 mg, Week 6/Endpoint",(24%)
same,"CGI Improvement Very Much Improved, %","[3]; 30 mg, Week 6/Endpoint",(9%)
same,"CGI Improvement Very Much Worse, %","[3]; 30 mg, Week 6/Endpoint",(<1%)
same,"CGI Improvement Minimally Improved, %","[3]; 40 mg, Week 2",(37%)
same,"CGI Improvement Minimally Worse, %","[3]; 40 mg, Week 2",(7%)
